Literature values, collected in patent publication US12124166B2, “Negative resist formulation for producing undercut pattern profiles” (Merck Patent GmbH, priority 2017, dated 2024).

Conditions: for pKa (Quencher's pKa values): Table 9; for pKa in water: stated in the Materials descriptions of commercial quenchers

Q: Which “pKa (Quencher's pKa values)” value does the source give for CCc1ncc[nH]1 [2EI, 2-Ethylimidazole] here?
A: 8.22

Q: What about the pKa in water of the same compound?
A: ~8.22

Q: For CCCCCCCCCCCCCCCCCC1=NCCN1CCO [Addi-MC, 2-(2-heptadecyl-4,5-dihydro-1H-imidazol-1-yl)ethan-1-ol], which pKa in water is on record?
A: ~10.08

Q: With CC(C)c1cccc(C(C)C)c1N [DIPA, 2,6-diisopropylaniline] as the compound, how does the “pKa (Quencher's pKa values)” value read?
A: 4.25

Q: And the pKa in water?
A: ~4.25

Q: For c1ccc(N(c2ccccc2)c2ccccc2)cc1 [DPA, triphenylamine], which “pKa (Quencher's pKa values)” value is on record?
A: −3.04

Q: What about the pKa in water of the same compound?
A: ~−3.04

Q: Which results are given for OCCn1ccnc1 [IA, 1-(2-hydroxyethylimidazole)]?
A: pKa (Quencher's pKa values): 6.78; pKa in water: ~6.78

Q: Which results are given for COCCOCCN(CCOCCOC)CCOCCOC [MNNE, 2-(2-methoxyethoxy)-N,N-bis[2-(2-methoxyethoxy)ethyl]-Ethanamine]?
A: pKa (Quencher's pKa values): 6.92; pKa in water: ~6.92

Q: Which “pKa (Quencher's pKa values)” value does the source give for CCN(C(C)C)C(C)C [N,N diisopropylethylamine] here?
A: 10.98

Q: For CCCN(C)CCC [N-Methyldipropylamine], which “pKa (Quencher's pKa values)” value is on record?
A: 9.91
